This note sets out measurements from PubChem BioAssay (NCI).

Converted amounts (≈) assume the structure as drawn.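 A five-concentration, 48-hour dose response in 96-well plates underlies each endpoint, interpolated linearly between surrounding concentrations. At the GI50, growth is halved. TGI is the concentration that stops growth completely.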

Some test systems named below: DLD-1 colon; DMS 273 small cell lung; LXFL 529 NSCLC; M19-MEL melanoma; RXF-631 renal; XF 498 CNS; DMS 114 small cell lung; HOP-18 NSCLC; SNB-78 CNS; P388 leukemia; SN12K1 renal; P388/ADR leukemia.
Assay in all cases: NCI tumour cell line growth inhibition, 48 h

For `COC1=CC(=O)[C@@]2(C)C(C)[C@H](c3ccccc3)[C@H]2C1=O` (some centres not stated), the TGI in the test with DLD-1 colon, with DMS 273 small cell lung, with LXFL 529 NSCLC, in the test on M19-MEL melanoma, in the test with RXF-631 renal and in the test on XF 498 CNS was > 100 µM throughout.

Turning to `CNC(=O)OC1/C(C)=C\C(C)C(O)C(OC)CC(C)CC2=C(OC)C(=O)C=C(C2=O)N(C)C(=O)/C(C)=C/C=C\C1OC` (configuration not stated), the TGI in the test with DLD-1 colon was found to be 16.4 µM; with DMS 114 small cell lung, 12.6 µM; with DMS 273 small cell lung, 14.8 µM; in the test with HOP-18 NSCLC, 22.7 µM; in the test with LXFL 529 NSCLC, 19.6 µM; in the test with M19-MEL melanoma, 14.7 µM. Moreover, the TGI with RXF-631 renal was 41.2 µM; with SNB-78 CNS, 30.3 µM; in the test with XF 498 CNS it was 10 µM.

In the case of `N#C/C(=C/c1ccc([N+](=O)[O-])o1)c1ccccc1`, the TGI with DLD-1 colon, in the test on DMS 114 small cell lung, in the test on DMS 273 small cell lung, with HOP-18 NSCLC, with LXFL 529 NSCLC and in the test on M19-MEL melanoma was > 100 µM throughout. In the test with SNB-78 CNS, the TGI was > 100 µM.

As to `O=C1C=C2SC3C[C@@]24CC1(O)[N+]1=c2c4c(c(O)c4c2=C(C=N4)CC1)N3`, the TGI with DLD-1 colon was 2.65 µM; in the test on DMS 114 small cell lung, 0.504 µM; with DMS 273 small cell lung, 2.97 µM; with HOP-18 NSCLC it was 3.9 µM; with M19-MEL melanoma, 0.773 µM; in the test with P388 leukemia it was 4.78 µM. Also, the TGI is 2.73 µM with SN12K1 renal, 4.21 µM in the test with SNB-78 CNS and 3.28 µM with XF 498 CNS.

As for `O=[N+]([O-])c1ccc(N=P(c2ccccc2)(c2ccccc2)c2ccccc2)n2nnnc12`, the TGI in the test on DMS 114 small cell lung, in the test with DMS 273 small cell lung, with HOP-18 NSCLC, with LXFL 529 NSCLC, in the test with M19-MEL melanoma and with XF 498 CNS was > 100 µM in each case.

`CC(=O)OC1CCC2(C)C(CCC3C2CCC2(C)C(c4ccc(=O)oc4)C(OC(C)=O)CC32O)C1` (configuration not stated): the TGI in the test with DLD-1 colon was found to be 0.0293 µM; in the test on DMS 273 small cell lung, 0.0194 µM; with HOP-18 NSCLC it was 0.068 µM; in the test with P388 leukemia it was 125 µM; in the test with P388/ADR leukemia, 125 µM; in the test on SN12K1 renal, 0.0296 µM. For the same compound, the figures for the TGI in the test on SNB-78 CNS and with XF 498 CNS were 0.112 µM and 0.0771 µM, respectively.

In the case of `O=C1CCNC/C1=C\c1ccccc1`, the TGI in the test on DLD-1 colon is 48.3 µM; in the test with DMS 114 small cell lung, 73.4 µM; in the test on DMS 273 small cell lung it was 69.1 µM; with LXFL 529 NSCLC, 34.5 µM; with M19-MEL melanoma it was 39.3 µM; with RXF-631 renal, > 100 µM. Besides, the TGI in the test with SNB-78 CNS was > 100 µM; in the test with XF 498 CNS, 74.7 µM.

For the compound `CCCC(O)c1ccc2[nH]c3c(C)cc([N+](=O)[O-])c(C)c3c2c1` (configuration not stated), the TGI with DLD-1 colon, in the test with DMS 114 small cell lung, with DMS 273 small cell lung, in the test on HOP-18 NSCLC, in the test with M19-MEL melanoma and in the test with SNB-78 CNS was > 100 µM throughout. The TGI in the test on XF 498 CNS was > 100 µM.

With `O=C(CC(C(=O)c1ccsc1)c1cccs1)c1cccs1` (configuration not stated), the TGI in the test with DLD-1 colon, in the test on DMS 114 small cell lung, in the test on DMS 273 small cell lung, with LXFL 529 NSCLC, with M19-MEL melanoma and in the test with SNB-78 CNS was > 100 µM in each case. Further, in the test on XF 498 CNS, the TGI is > 100 µM.

Turning to `Cc1cc2c3ccccc3n3c2c2c1OC1(C)CCC(C2C1)C3(C)C` (configuration not stated), the TGI in the test on DLD-1 colon, in the test on DMS 114 small cell lung, in the test on DMS 273 small cell lung, in the test with LXFL 529 NSCLC, in the test with M19-MEL melanoma and in the test on SNB-78 CNS was > 25 µM throughout. Further, in the test on XF 498 CNS, the TGI is > 25 µM.

Take `Cc1[nH]c2c(C)c3c([nH]c4ccc(Cl)cc43)c(C)c2c(=O)c1C`: the TGI was 73.3 µM in the test on DLD-1 colon; 83.3 µM in the test on DMS 114 small cell lung; 96.1 µM in the test on DMS 273 small cell lung; > 100 µM in the test on HOP-18 NSCLC; 54.9 µM in the test on M19-MEL melanoma; > 100 µM in the test with SNB-78 CNS. Besides, in the test with XF 498 CNS, the TGI is > 100 µM.

Consider `COc1ccc(N2C(=O)[C@@H]3[C@@H]4CC(C)CC[C@@H]4c4c([nH]c5ccccc45)[C@@H]3C2=O)cc1` (some centres not stated), for which the TGI in the test with DLD-1 colon was > 58.4 µM; in the test on DMS 114 small cell lung, > 59.5 µM; in the test on DMS 273 small cell lung, 44.3 µM; in the test with HOP-18 NSCLC, 14 µM; with LXFL 529 NSCLC, > 88 µM; with M19-MEL melanoma, > 100 µM. Besides, the TGI with SNB-78 CNS was 27.2 µM; with XF 498 CNS, 26 µM.

Turning to `CCOC(=O)CN(CC)C(=O)NC12CC3CC(CC(C3)C1)C2`, the TGI in the test on DLD-1 colon was > 119 µM; in the test with DMS 114 small cell lung, 363 µM; in the test with DMS 273 small cell lung, > 705 µM; with HOP-18 NSCLC, 609 µM; in the test on M19-MEL melanoma, 472 µM; with P388 leukemia it was 508 µM. Moreover, the TGI in the test with P388/ADR leukemia is 640 µM; with SN12K1 renal, 569 µM; in the test on SNB-78 CNS, 709 µM; in the test with XF 498 CNS it was 293 µM.

Turning to `COC(=O)CC(=O)OC1C[C@@H]2CCC3C(C)(C)CCC[C@]3(C)C23CC[C@@]1(C)C3` (some centres not stated), the TGI with DLD-1 colon turned out to be 34.2 µM; in the test on DMS 114 small cell lung it was 37.9 µM; in the test on M19-MEL melanoma, 36.3 µM; with SNB-78 CNS, 42.5 µM; with XF 498 CNS it was 34.4 µM.

With `Cc1c2ccncc2c(C)c2c1[nH]c1ccc(O)cc12`, the GI50 in the test with DLD-1 colon is 0.023 µg/mL (≈ 0.0875 µM); in the test with DMS 114 small cell lung it was 0.0226 µg/mL (≈ 0.0863 µM); in the test on M19-MEL melanoma, 0.0231 µg/mL (≈ 0.0881 µM); with P388/ADR leukemia, 0.014 µg/mL (≈ 0.0532 µM); in the test with SN12K1 renal, 0.0168 µg/mL (≈ 0.0639 µM). Besides, the TGI in the test with DLD-1 colon is 0.883 µg/mL; in the test on DMS 114 small cell lung, 0.227 µg/mL; with M19-MEL melanoma it was 0.388 µg/mL; in the test with P388 leukemia it was 0.232 µg/mL; in the test on P388/ADR leukemia, 1.75 µg/mL; with SN12K1 renal it was 0.182 µg/mL.

As to `CCCCCCNC(=O)CCN(C(=O)O)S(=O)(=O)c1ccc(NC(=O)c2ccccc2)cc1`, the TGI was 43.2 µM in the test with DLD-1 colon; > 53.1 µM in the test on DMS 114 small cell lung; > 55.2 µM in the test on DMS 273 small cell lung; > 100 µM in the test on HOP-18 NSCLC; > 100 µM in the test with LXFL 529 NSCLC; > 81.6 µM in the test with M19-MEL melanoma. Further, the TGI in the test on SNB-78 CNS and with XF 498 CNS was > 100 µM in each case.

Turning to `COC1=CC(=O)C2(C=C1OC)OC[C@H]1Oc3c(ccc4c3C=CC(C)(C)O4)C(=O)[C@H]12` (some centres not stated), the TGI with DLD-1 colon was > 100 µM; with DMS 114 small cell lung, 94.5 µM; in the test with DMS 273 small cell lung it was > 100 µM; in the test on LXFL 529 NSCLC it was > 100 µM; in the test on M19-MEL melanoma, > 100 µM; in the test with RXF-631 renal it was > 100 µM. Moreover, the TGI with SNB-78 CNS and in the test with XF 498 CNS was > 100 µM throughout.

Take `CN1C/C(=C\c2ccccc2)C2=NN(C(N)=S)[C@H](c3ccccc3)[C@@H]2C1`: the TGI in the test with DLD-1 colon, in the test on DMS 273 small cell lung, in the test with LXFL 529 NSCLC, with M19-MEL melanoma, in the test with SNB-78 CNS and in the test on XF 498 CNS was > 100 µM throughout.
